Tested on: PR8 influenza A virus (influenza/A/PR/8/34 virus)
Format: cell-based
Conditions: MDCK cells pretreated 1 hour with 20 mM NH4Cl and kept under NH4Cl; […]; approximately 48 hours PI; 4,000 Hz; listed as ammonium chloride (NH4Cl)

For `Cl.N` [NH4Cl, ammonium chloride], the “signal resistance (ECIS) of the cell monolayer following influenza inoculation” value was “the reduction in signal resistance due to influenza infection is abolished”.

Source: patent publication US20080233561A1, “Method for Measuring Cytopathic Effect Due to Viral Infection in Cells Using Electric Cell-Substrate Impedance Sensing” (UNIVERSITY OF LOUISVILLE RESEARCH FOUNDATION, INC., priority 2005, published 2008)
